Measurements as given in article PMC6792352, “Limited Chemical Structural Diversity Found to Modulate Thyroid Hormone Receptor in the Tox21 Chemical Library” (Environmental Health Perspectives, 2019).
Counter-ions that a name gives are not always drawn. Like-named read-outs stand apart in the source and are kept apart here.

Tested on: GH3-TRE-Luc cell line
Details: read-out: AC50 (uM) modified / 1000, viability, 1 nM T3 present, 24 h

## CCN1/C(=C/C=C/C=C/c2sc3ccccc3[n+]2CC)Sc2ccccc21 [Dithiazanine chloride]
Tox21_110001=Tox21_113171
  CC50: 7.02 µM

## CSc1ccc2c(c1)N(CCC1CCCCN1C)c1ccccc1S2 (stereo not drawn) [Thioridazine]
Tox21_110001=Tox21_110294
  CC50: 6.53 µM

## Cc1ncc[nH]1 [2-Methylimidazole]
Tox21_110001=Tox21_111136
  CC50: 0.0572 µM

## COc1ccc(C(=O)CC(=O)c2ccc(C(C)(C)C)cc2)cc1 [1-(4-tert-Butylphenyl)-3-(4-methoxyphenyl)propane-1,3-dione]
Tox21_110001=Tox21_111427
  CC50: 24.3 µM
Tox21_110001=Tox21_202796
  CC50: 71.9 µM

## COc1ccc(C(Cl)=C(c2ccc(OC)cc2)c2ccc(OC)cc2)cc1 [Chlorotrianisene]
Tox21_110001=Tox21_202361
  CC50: 13.6 µM

## CCCCCCCCCCCCCC[P+](CCCCCC)(CCCCCC)CCCCCC [Trihexyltetradecylphosphonium dicyanamide]
Tox21_110001=Tox21_202613
  CC50: 2.76 µM

## CO[C@@H]1[C@H](OC(=O)/C=C/C=C/C=C/C=C/C(=O)O)CC[C@]2(CO2)[C@H]1[C@@]1(C)O[C@@H]1CC=C(C)C [Fumagillin]
Tox21_110001=Tox21_112066
  CC50: 42.9 µM

## COc1ccc(CCN(C)CCCC(C#N)(c2ccc(OC)c(OC)c2)C(C)C)cc1OC (stereo not drawn) [Verapamil]
Tox21_110001=Tox21_110300
  CC50: 23.2 µM

## Oc1ccc(OCc2ccccc2)cc1 [4-(Benzyloxyl)phenol]
Tox21_110001=Tox21_110396
  CC50: 4.58 µM
Tox21_110001=Tox21_201147
  CC50: 10.2 µM

## CCN(CC)C(=S)S [Sodium diethyldithiocarbamate trihydrate]
Tox21_110001=Tox21_302812
  CC50: 8.88 µM

## Nc1ccccc1N [1,2-Phenylenediamine]
Tox21_110001=Tox21_400014
  CC50: 73.8 µM

## c1cnc2c(c1)ccc1cccnc12 [1,10-Phenanthroline hydrochloride hydrate]
Tox21_110001=Tox21_301286
  CC50: 7.25 µM

## COc1cc(/C=C/C(=O)CC(=O)/C=C/c2ccc(O)c(OC)c2)ccc1O [Curcumin]
Tox21_110001=Tox21_110803
  CC50: 22.1 µM
Tox21_110001=Tox21_201116
  CC50: 26.5 µM

## [H]/N=C(\N/C(=N/[H])NCCCCCCNC(=N)NC(=N)Nc1ccc(Cl)cc1)Nc1ccc(Cl)cc1 [Chlorhexidine dihydrochloride]
Tox21_110001=Tox21_302689
  CC50: 5.24 µM

## O=C(O)CCCC(=O)O [Glutaric acid]
Tox21_110001=Tox21_302871
  CC50: 35.4 µM

## Oc1c(Cl)cc(Cl)cc1Sc1cc(Cl)cc(Cl)c1O [Sodium bithionolate]
Tox21_110001=Tox21_202791
  CC50: 7.44 µM

## CN(Cc1ccc(C(C)(C)C)cc1)Cc1cccc2ccccc12 [Butenafine hydrochloride]
Tox21_110001=Tox21_112918
  CC50: 28.6 µM

## CC(C)(C)c1cc(O)ccc1O [tert-Butylhydroquinone]
Tox21_110001=Tox21_110007
  CC50: 7.35 µM
Tox21_110001=Tox21_202309
  CC50: 64.9 µM
Tox21_110001=Tox21_300081
  CC50: 37.7 µM

## CCCCCCCCCCCCCC[N+](C)(C)C [Tetradonium bromide]
Tox21_110001=Tox21_112327
  CC50: 5.04 µM
Tox21_110001=Tox21_302067
  CC50: 8.21 µM

## COc1ccc(C(=O)/C(Br)=C\C(=O)O)cc1 [Bromebric acid]
Tox21_110001=Tox21_111900
  CC50: 31.6 µM

## Cn1c(=O)c2c(ncn2C)n(C)c1=O [Caffeine]
Tox21_110001=Tox21_201685
  CC50: 41.2 µM

## CCCCCCCCCCCC(=O)O [Triethanolamine Laurate]
Tox21_110001=Tox21_302696
  CC50: 85.4 µM

## CN(C)C(=S)SSC(=S)N(C)C [Thiram]
Tox21_110001=Tox21_111150
  CC50: 0.159 µM
Tox21_110001=Tox21_201569
  CC50: 12.7 µM
Tox21_110001=Tox21_301102
  CC50: 0.0524 µM

## Nc1ccc(Nc2ccccc2)cc1 [N-Phenyl-1,4-benzenediamine hydrochloride]
Tox21_110001=Tox21_200117
  CC50: 57.3 µM

## Nc1ccc(-c2ccc(N)c(N)c2)cc1N [3,3'-Diaminobenzidine]
Tox21_110001=Tox21_302170
  CC50: 93.2 µM

## CCCCCCCCCCn1cc[n+](C)c1 [1-Decyl-3-methylimidazolium bromide]
Tox21_110001=Tox21_202622
  CC50: 18 µM

## CCCCCCCC[n+]1ccn(C)c1 [1-Methyl-3-octylimidazolium bromide]
Tox21_110001=Tox21_202653
  CC50: 31.6 µM

## CO[C@H]1C[C@@H]2CC[C@@H](C)[C@@](O)(O2)C(=O)C(=O)N2CCCC[C@H]2C(=O)O[C@H]([C@H](C)C[C@@H]2CC[C@@H](O)[C@H](OC)C2)CC(=O)[C@H](C)/C=C(\C)[C@@H](O)[C@@H](OC)C(=O)[C@H](C)C[C@H](C)/C=C/C=C/C=C/1C [Sirolimus]
Tox21_110001=Tox21_110870
  CC50: 0.00123 µM
Tox21_110001=Tox21_112750
  CC50: 0.00263 µM

## CCCCCCCCCCCCCCCC[N+](C)(C)C [Hexadecyltrimethylammonium bromide]
Tox21_110001=Tox21_112096
  CC50: 9.07 µM
Tox21_110001=Tox21_300853
  CC50: 11.7 µM

## COc1ccc(CN(CCN(C)C)c2ccccn2)cc1 [Pyrilamine]
Tox21_110001=Tox21_200978
  CC50: 39.2 µM

## CCCCCCCCCCCCCC[P+](CCCCCC)(CCCCCC)CCCCCC [Trihexyltetradecylphosphonium hexafluorophosphate]
Tox21_110001=Tox21_200750
  CC50: 5.33 µM

## CN(C)c1ccc(C(=C2C=CC(=[N+](C)C)C=C2)c2ccccc2)cc1 [Malachite green oxalate]
Tox21_110001=Tox21_110008
  CC50: 5.84 µM
Tox21_110001=Tox21_202521
  CC50: 0.0943 µM

## CNCCC(Oc1ccc(C(F)(F)F)cc1)c1ccccc1 (stereo not drawn) [Fluoxetine]
Tox21_110001=Tox21_110144
  CC50: 8.3 µM

## C#C[C@]1(O)CC[C@H]2[C@@H]3CCC4=CCCC[C@@H]4[C@H]3CC[C@@]21C [Lynestrenol]
Tox21_110001=Tox21_110319
  CC50: 17.1 µM
Tox21_110001=Tox21_301969
  CC50: 46.9 µM

## O=C(NCC1CCCCN1)c1cc(OCC(F)(F)F)ccc1OCC(F)(F)F (stereo not drawn) [Flecainide]
Tox21_110001=Tox21_110151
  CC50: 36.6 µM

## CC(C)(C)c1ccc(C(O)CCCN2CCC(C(O)(c3ccccc3)c3ccccc3)CC2)cc1 (stereo not drawn) [Terfenadine]
Tox21_110001=Tox21_110296
  CC50: 5.45 µM

## C=C(C)[C@H]1Cc2c(ccc3c2O[C@@H]2COc4cc(OC)c(OC)cc4[C@@H]2C3=O)O1 [Rotenone]
Tox21_110001=Tox21_110819
  CC50: 3.27 µM
Tox21_110001=Tox21_201904
  CC50: 15.5 µM
Tox21_110001=Tox21_300695
  CC50: 5.41 µM
